Results published in paper PMC10173323 (ACS Omega, 2023).

Target: DNA gyrase (Escherichia coli, UniProt P0AES4+P0AES6)
Assay: DNA supercoiling gel assay
Assay type: biochemical

DNA gyrase, sequence (P0AES4 2-875, one chain of several): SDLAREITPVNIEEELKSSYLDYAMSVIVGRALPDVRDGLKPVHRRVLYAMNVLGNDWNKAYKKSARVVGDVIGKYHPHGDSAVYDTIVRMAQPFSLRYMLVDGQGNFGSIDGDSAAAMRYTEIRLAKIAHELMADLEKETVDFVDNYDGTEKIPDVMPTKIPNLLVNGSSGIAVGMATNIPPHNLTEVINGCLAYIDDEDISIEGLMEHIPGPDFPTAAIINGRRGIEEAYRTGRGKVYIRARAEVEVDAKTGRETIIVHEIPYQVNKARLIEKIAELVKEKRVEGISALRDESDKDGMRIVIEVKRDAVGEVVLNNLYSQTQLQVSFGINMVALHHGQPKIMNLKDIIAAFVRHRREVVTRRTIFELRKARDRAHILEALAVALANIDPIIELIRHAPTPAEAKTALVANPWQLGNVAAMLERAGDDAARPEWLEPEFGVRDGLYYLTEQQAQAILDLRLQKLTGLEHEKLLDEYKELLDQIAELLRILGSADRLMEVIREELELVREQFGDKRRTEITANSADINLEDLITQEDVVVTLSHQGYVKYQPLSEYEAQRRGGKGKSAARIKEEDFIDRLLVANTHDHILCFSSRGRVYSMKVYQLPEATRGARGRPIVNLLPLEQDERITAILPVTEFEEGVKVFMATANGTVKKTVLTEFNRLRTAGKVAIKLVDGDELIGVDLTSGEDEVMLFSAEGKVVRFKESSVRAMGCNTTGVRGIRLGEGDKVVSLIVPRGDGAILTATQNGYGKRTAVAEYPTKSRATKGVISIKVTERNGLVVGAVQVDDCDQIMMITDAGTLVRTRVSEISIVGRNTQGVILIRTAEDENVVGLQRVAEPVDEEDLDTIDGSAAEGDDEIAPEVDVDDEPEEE

Work on O=c1c(-c2ccc(O)cc2)coc2cc(O)ccc12 [daidzein] yielded an IC50 of 0.165 µM.

With COc1c2occc2c(OC)c2c(=O)cc(C)oc12 [khellin] the IC50 was 3.16 µM.
